From paper PMC12442245, “Activity Analysis of the P2X Receptor Antagonist PPADS against Signal Transducer and Activator of Transcription Proteins” (Chembiochem, 2025)

What was measured:
STAT3 = STAT3 (Homo sapiens, UniProt P40763); assay: Competitive fluorescence polarization (FP) assay, STAT3; type: binding; conditions: no reducing agent, 1 h
Text: Screening of chemical libraries
Screening of chemical libraries comprising approximately 5000 known bioactive compounds in fluorescence polarization-based assays against phosphorylation-dependent protein-protein interaction domains, including STAT proteins, has been described.[1] PPADS was purchased from Sigma-Aldrich, and iso-PPADS from Bio-Techne.
(§1) Fluorescence polarization assays
(§2) Competitive fluorescence polarization (FP) assays for STAT1,[2] STAT3,[3] STAT4,[4] STAT5a,[5] STAT5b[6] and STAT6[1] were performed as previously described. Briefly, peptide binding to proteins was analyzed using the following carboxyfluorescein (CF) -labelled pepti des at a concentration of 10 nM: STAT1: 5-CF-GpYDKPHVL-OH, STAT3: 5-CF-GpYLPQTV -NH2, STAT4: 5-CF-GpYLPQNID-OH, STAT5a and STAT5b: 5-CF-GpYLVLDKW-OH, STAT6: 5- […]
CFGp[…]-OH. Proteins were used at a final concentration representing the approximate Kd value for binding of the corresponding peptide to the protein, namely 65 nM for STAT1, 65 nM for STAT3, 35 nM for STAT4, 125 nM for STAT5a, 65 nM for STAT5b and 75 nM for STAT6. […] FP was measured using an Infinite F500 plate reader (Tecan) and measurements were converted into percent inhibition according to the binding curve equation. Curves were plotted and best fits calculated using OriginPro […]

STAT5a = molecular target: T1, STAT5a (Homo sapiens, UniProt P42229); assay: HTRF assay, STAT5a; type: binding; conditions: STAT5a 110 nM, without reducing agent, 1 h
T1 sequence (P42229 1-794): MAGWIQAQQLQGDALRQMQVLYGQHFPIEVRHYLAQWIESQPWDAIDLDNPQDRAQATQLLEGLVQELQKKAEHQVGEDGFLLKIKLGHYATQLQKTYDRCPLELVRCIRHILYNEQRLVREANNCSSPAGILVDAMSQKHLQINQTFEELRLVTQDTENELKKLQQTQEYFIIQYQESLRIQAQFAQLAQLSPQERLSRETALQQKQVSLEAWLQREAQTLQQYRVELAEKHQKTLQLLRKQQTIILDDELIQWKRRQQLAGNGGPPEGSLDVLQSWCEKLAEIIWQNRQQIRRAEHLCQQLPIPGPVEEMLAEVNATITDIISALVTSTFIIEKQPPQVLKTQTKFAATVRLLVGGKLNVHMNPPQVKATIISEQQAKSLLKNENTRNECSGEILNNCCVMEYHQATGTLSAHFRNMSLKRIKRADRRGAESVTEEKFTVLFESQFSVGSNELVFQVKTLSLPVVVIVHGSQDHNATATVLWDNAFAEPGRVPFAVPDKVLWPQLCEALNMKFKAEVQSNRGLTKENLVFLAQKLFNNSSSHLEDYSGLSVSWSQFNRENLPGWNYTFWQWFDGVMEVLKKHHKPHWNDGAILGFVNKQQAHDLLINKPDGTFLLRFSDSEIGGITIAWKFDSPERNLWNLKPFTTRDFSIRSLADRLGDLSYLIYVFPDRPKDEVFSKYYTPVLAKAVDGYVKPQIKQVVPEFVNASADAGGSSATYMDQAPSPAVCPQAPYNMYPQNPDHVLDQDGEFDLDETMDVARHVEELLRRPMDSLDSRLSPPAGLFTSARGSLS
Text: The azo dyes PPADS and iso‐PPADS have a deep red color in aqueous solution. […] In order to exclude this possibility, we established homogeneous time‐resolved fluorescence resonance energy transfer (HTRF) assays to confirm the degree of binding between STAT4, STAT5a, and STAT5b and the respective 5‐carboxyfluorescein‐labeled binding peptides used in the FP assay. In addition, an HTRF assay was established for STAT3, one of the STAT proteins targeted to a lesser extent in FP assays, as a specificity control (Figure 1B,C). The STAT protein constructs each contain a 6x‐His‐tag.^[ [15], [16], [17], [22] ^] A Tb^3+‐cryptate fused to an anti‐6x‐His antibody was chosen as the long‐lived fluorescent donor, while the carboxyfluorescein linked to the respective STAT‐binding peptides served as the acceptor (Figure 2A). Emission was measured with a time delay of 60 μs after excitation, allowing any initial compound fluorescence to decay beforehand. […]
Screening of chemical libraries comprising approximately 5000 known bioactive compounds in fluorescence polarization-based assays against phosphorylation-dependent protein-protein interaction domains, including STAT proteins, has been described.[1] […]
as §1
as §2, with “STAT3,[3] STAT4,[4] STAT5a,[5] STAT5b[6] and STAT6[1] were performed as previously described.” left out
CFGp[…]-OH. […] FP was measured using an Infinite F500 plate reader (Tecan) and measurements were converted into percent inhibition according to the binding curve equation. Curves were plotted and best fits calculated using OriginPro […]
Homogenous time-resolved fluorescence (HTRF) assays for STAT3, STAT4, STAT5a and STAT5b were carried out using Cisbio Monoclonal Antibody Anti-6His-Tb Gold as the fluorescence donor (Perkin Elmer) and the corresponding CF-labelled binding peptide as the acceptor. […] The average reading from 3 wells was obtained. […]

Chain of STAT3 (P40763 whole entry, species assumed): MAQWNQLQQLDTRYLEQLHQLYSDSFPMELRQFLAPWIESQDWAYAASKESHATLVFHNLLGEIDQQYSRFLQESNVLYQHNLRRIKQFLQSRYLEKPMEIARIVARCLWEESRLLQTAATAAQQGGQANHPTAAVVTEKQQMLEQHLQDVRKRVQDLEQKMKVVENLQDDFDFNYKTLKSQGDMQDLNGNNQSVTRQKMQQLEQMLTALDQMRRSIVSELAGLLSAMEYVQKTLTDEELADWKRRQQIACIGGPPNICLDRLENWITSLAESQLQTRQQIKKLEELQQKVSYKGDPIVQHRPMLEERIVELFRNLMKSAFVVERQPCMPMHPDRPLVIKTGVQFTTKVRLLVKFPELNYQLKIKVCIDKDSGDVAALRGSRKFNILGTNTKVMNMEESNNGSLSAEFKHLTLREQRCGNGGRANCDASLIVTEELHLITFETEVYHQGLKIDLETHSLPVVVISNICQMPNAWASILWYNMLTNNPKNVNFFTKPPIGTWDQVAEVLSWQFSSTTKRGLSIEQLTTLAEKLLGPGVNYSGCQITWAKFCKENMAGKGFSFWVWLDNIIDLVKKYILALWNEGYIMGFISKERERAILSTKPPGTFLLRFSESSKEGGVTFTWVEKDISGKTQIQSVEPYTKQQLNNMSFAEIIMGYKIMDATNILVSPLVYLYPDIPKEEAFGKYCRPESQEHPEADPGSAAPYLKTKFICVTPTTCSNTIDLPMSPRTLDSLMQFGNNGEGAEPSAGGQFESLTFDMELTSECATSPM

Row | Compound | IC50 (STAT3) [µM] | IC50 (STAT5a) [µM]
1 | Cc1nc(/N=N/c2ccc(S(=O)(=O)O)cc2S(=O)(=O)O)c(COP(=O)(O)O)c(C=O)c1O [PPADS, pyridoxalphosphate‐6‐azophenyl‐2',4'‐disulfonic acid] | 22.6 ± 1.6 | 1.41 ± 0.35
2 | Cc1nc(/N=N/c2cc(S(=O)(=O)O)ccc2S(=O)(=O)O)c(COP(=O)(O)O)c(C=O)c1O [iso‐PPADS] | 54 ± 14 | 8.2 ± 0.7
